Tests used:
[1] = test system: Foxc2 expression; test: High through-put screening: beta-gal activity (Beta-glo kit) in Foxc2nLacZ MEFs differentiated into adipocytes; type: cell-based, mouse
Procedure: Primary MEFs from both wild type and Foxc2nLacZ knock-in mice were maintained in DMEM supplied with 10% FBS and antibiotics. For differentiation into adipocytes the MEFs were grown until confluency and then stimulated (Day 0) with a differentiation media (DMEM, 10% FBS, antibiotics, 1 uM dexamethasone, 0.5 mM isobutyl-methyl-xanthine, 10 ug/mL insulin, 20 ng/ml FGF (all from Sigma), and 1 uM rosiglitazone (Alexis)). New differentiation media was added at day 3. At day 5 the differentiation media was removed and the cells were cultured in a media containing DMEM, 10% FBS, antibiotics, 10 ug/mL insulin, 1 uM rosiglitazone, and 20 ng/ml FGF. This media was changed every second day. From day 10 the cells were kept DMEM supplied with 10% FBS and antibiotics for 24 hours as a wash out period before initiating the experiments.
Foxc2nLacZ MEFs were plated onto gelatine coated 96 well plates. Differentiation was initialized after confluence according to protocol. […] After a wash out period for 24 hours the cells were subjected to different compounds for the indicated time points and subsequently induction of β-gal enzyme activity was measured using the Beta-glo kit (Promega) and a luminometric plate reader. Confluent cells differentiated into adipocytes were detected by increased X-gal staining (FIG. 5a-d), Foxc2nLacZ protein levels increased transiently during the differentiation process. […]

[2] = test system: Foxc2 expression; test: Monitoring Foxc2 expression in MEFs by X-gal staining; type: cell-based, mouse; settings: acute treatment; MEFs from heterozygous Foxc2nLacZ E13.5 embryos
Procedure: FIG. 4 specifies the expression of Foxc2 during adipocyte differentiation of mouse embryonic fibroblasts (MEFs), which were isolated from Foxc2nLacZ±E13.5 embryos as well as wt littermates as control. The MEFs were treated with adipocyte differentiation mix (0.5 mM IBMX, 0.25 μM Dex and 10 μg/mL insulin) and X-gal stained at different time points after start of differentiation. Expression of Foxc2 increases during the course of adipocyte differentiation as judge by increasing β-galactosidase activity.
MEFs were isolated from E13.5 embryos from Foxc2nLacZ±heterozygous intercrosses and genotyped by PCR on DNA from the tail. The head, limbs and viscera were removed from embryos and the remains were minced with a razor blade and incubated in 0.25% trypsin, 0.1% EDTA for 1 h at 37° C. The cell suspension was plated in DMEM containing 10% fetal calf serum and antibiotics (100 units of penicillin and 100 μg/mL streptomycin). Once the cultures reached confluency, 1×10^6 cells were plated on 10-cm tissue culture plates (Falcon) and considered passage 0.
A cell based high-throughput screening system has been established by isolation of MEFs from heterozygous Foxc2nLacZ±E13.5 embryos as well as from wt embryos as a control.

| Compound | beta-gal activity ([1]; Foxc2nLacZ MEFs differentiated into adipocytes, 96 well plates, 50 μg per well at 0 h, acute treatment, Beta-glo kit) | levels of reporter gene over time ([1]; single dose, gene construct with in frame fusion of Foxc2 with a reporter gene) | Foxc2nLacZ protein levels (X-gal staining) [2] |
| --- | --- | --- | --- |
| CCCCCCCCCCCCCC(=O)O[C@@H]1[C@@H](C)[C@@]2(O)[C@@H](C=C(CO)C[C@]3(O)C(=O)C(C)=C[C@@H]23)[C@@H]2C(C)(C)[C@]12OC(C)=O [TPA, 12-O-tetradecanoylphorbol-13-acetate] | increase in beta-gal activity | moderate increasing of the levels of reporter gene remaining for long periods at similar levels |  |
| TNFα |  |  | levels could be induced |
| insulin: Insulin, known to be an inducer of Foxc2, may be utilized as a control |  |  | levels could be induced |

Source: patent US20080181877A1, “Method For Monitoring the Effect of Compounds on Foxc2 Expression” (LEANGENE AB, C/O CIT Ekonomiservice AB, priority 2006, published 2008)
